The source of these data is paper PMC12999171 (eLife, 2026).

By EC50 is commonly meant the concentration that produces a half-maximal response. Higher therefore signals lower potency in that assay.

Test [1] concerns the target iGABASnFR2n (Pseudomonas fluorescens, UniProt A0A1B3D787, F126L/F129H/N285A/S124A). As to the kind of experiment: biochemical. In kind it is binding.
Source text: (§1) The fluorescence data was fitted to the Hill function in GraphPad Prism to determine affinity values.
The target of test [2] is iGABASnFR1 (Pseudomonas fluorescens, UniProt A0A1B3D787, F126L/N285A). As to the kind of experiment: biochemical. Format: binding.
Source text: as §1

The structures appear in SMILES notation.

Chain of iGABASnFR2n (A0A1B3D787 27-341, stated change not applied): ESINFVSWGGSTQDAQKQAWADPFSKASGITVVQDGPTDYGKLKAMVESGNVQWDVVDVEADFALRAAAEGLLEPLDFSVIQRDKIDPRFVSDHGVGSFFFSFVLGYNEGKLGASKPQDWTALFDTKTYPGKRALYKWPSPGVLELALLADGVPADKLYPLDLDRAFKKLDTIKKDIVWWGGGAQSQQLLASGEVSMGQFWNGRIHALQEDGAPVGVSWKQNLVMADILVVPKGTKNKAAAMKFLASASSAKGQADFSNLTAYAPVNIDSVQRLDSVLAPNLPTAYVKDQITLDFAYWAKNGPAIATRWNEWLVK
Chain of iGABASnFR2n (P42212 whole entry Y145W/R168P partner): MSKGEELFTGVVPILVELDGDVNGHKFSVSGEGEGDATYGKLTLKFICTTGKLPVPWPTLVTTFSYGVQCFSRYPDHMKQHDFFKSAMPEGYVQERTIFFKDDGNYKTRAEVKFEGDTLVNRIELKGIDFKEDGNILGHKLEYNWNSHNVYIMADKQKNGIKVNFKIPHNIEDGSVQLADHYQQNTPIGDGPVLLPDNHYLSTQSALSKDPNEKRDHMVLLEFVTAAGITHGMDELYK
Chain of iGABASnFR1 (A0A1B3D787 27-341, stated change not applied): as the sequence (A0A1B3D787 27-341, stated change not applied) above
Chain of iGABASnFR1 (P42212 with tags, fused parts or gaps S30R/Y39N/F64L/F99S/N105T/Y145W partner): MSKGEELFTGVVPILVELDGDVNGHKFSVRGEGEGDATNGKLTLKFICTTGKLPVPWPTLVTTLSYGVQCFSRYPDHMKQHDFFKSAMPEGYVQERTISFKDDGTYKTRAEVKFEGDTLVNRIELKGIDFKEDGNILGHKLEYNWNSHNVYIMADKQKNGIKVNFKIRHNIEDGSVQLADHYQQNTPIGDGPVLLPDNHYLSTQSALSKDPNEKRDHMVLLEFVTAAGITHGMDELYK

`CN1CCc2cc3c(cc2[C@H]1[C@@H]1OC(=O)c2c1ccc1c2OCO1)OCO3` [bicuculline, reference compound] displayed an EC50 in test [1] of 9000 µM.
`O=C(O)[C@@H]1CCCN1` [proline] registered an EC50 in test [1] of 2490 µM.
Consider `CSCC[C@H](N)C(=O)O` [methionine], for which the EC50 in test [2] stood at 0.419 µM; in test [1] it was 9000 µM.
Turning to `NCC(CC(=O)O)c1ccc(Cl)cc1` (centres unmarked) [baclofen, reference compound], the EC50 in test [2] was 7380 µM; in test [1], 6.3 µM.
For `C[C@@H](O)[C@H](N)C(=O)O` [threonine], the EC50 in test [2] is 19.9 µM; in test [1] it was 9000 µM.
As to `N[C@@H](CC(=O)O)C(=O)O` [aspartate], the EC50 in test [2] amounted to 2.39 µM; in test [1], 0.526 µM.
In the same order, the values of `C[C@H](N)C(=O)O` [alanine] are 1710 µM and 582 µM.
In the same order, the values of `N[C@@H](Cc1ccccc1)C(=O)O` [phenylalanine] are 3.71 µM and 1150 µM.
In the same order, the values of `N=C(N)NCCC[C@H](N)C(=O)O` [arginine] are 59 µM and 3.35 µM.
On to `NCc1cc(=O)[nH]o1` [muscimol, reference compound], for which the figures for the EC50 in test [2] and in test [1] were 5.81 µM and 2.62 µM, respectively.
In test [1], `NCCc1c[nH]cn1` [histamine] showed a 50% effective concentration (EC50) of 9000 µM.
As for `NC(=O)C[C@H](N)C(=O)O` [asparagine], the EC50 in test [2] came to 8490 µM; in test [1], 5500 µM.
In the same order, the values of `NCCCC[C@H](N)C(=O)O` [lysine] are 77.5 µM and 741 µM.
In the same order, the values of `CC[C@H](C)[C@H](N)C(=O)O` [isoleucine] are 2.45 µM and 111 µM.
In the same order, the values of `N[C@@H](CO)C(=O)O` [serine] are 50.9 µM and 5520 µM.
Take `N[C@@H](Cc1c[nH]c2ccccc12)C(=O)O` [tryptophan]: in test [1], the EC50 is 0.396 µM.
The same measure, in the same setting: then `Cc1ccsc1C(=CCCN1CCC[C@@H](C(=O)O)C1)c1sccc1C` [tiagabine, reference compound], with 2230 µM.
As to `CC(C)[C@H](N)C(=O)O` [valine], the EC50 in test [2] was found to be 1.34 µM; in test [1] it was 1.47 µM.
`C=CC(N)CCC(=O)O` (centres unmarked) [vigabatrin, reference compound]: the EC50 in test [2] turned out to be 5430 µM.
